Reference: patent publication US20170058314A1, “NOVEL METHODOLOGY FOR IDENTIFYING ANTI-PERSISTER ACTIVITY AND ANTIMICROBIAL SUSCEPTIBILITY FOR BORRELIA BURGDORFERI AND OTHER BACTERIA” (priority 2014, published 2017)

Columns and labels:
[1] = test system: log phase and stationary phase B. burgdorferi culture; assay: Antibiotic exposure assay, SYBR Green I/PI (drugs alone and combinations)
In short: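 Stationary-phase or round-body B. burgdorferi exposed 7 days at 33 °C to drugs alone or combined at 10 μg/mL each (single-compound screen: 50 μM final). Viability by SYBR Green I/PI, ex 485, em 535/635 nm; percent live from regression of green/red ratio, corrected by direct microscopy counting.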

[2] = test system: round body form of B. burgdorferi; assay: SYBR Green I/PI assay on amoxicillin-induced round body form
[3] = test system: B. burgdorferi log and stationary phase cultures; assay: epi-fluorescence microscope counting after antibiotic exposure (persister frequency, planktonic forms); type: cell-based, Borrelia burgdorferi
[4] = test system: stationary phase B. burgdorferi persisters (strain B31); assay: NCI compound library rescreen, epifluorescence microscope counting; conditions: Borreliella burgdorferi, 168 h
[5] = test system: round body form of B. burgdorferi; assay: Subculture test of drug-treated round body form
Method: For induction of round body form of B. burgdorferi, B. burgdorferi spirochetes (1×10^5 spirochetes/mL) were cultured in BKS-H medium for 6 days without shaking. After the 6-day incubation, amoxicillin at a final concentration of 50 μg/mL was added to the culture for round body form induction. After 72 h induction at 33° C., the round body forms of B. burgdorferi were examined by the microscopy. The round body cells (100 μL) were transferred to 96-well tissue culture microplates for evaluation of the effects of antibiotic treatment.

[6] = test system: stationary phase B. burgdorferi persisters (strain B31); assay: SYBR Green I/PI viability assay (plate reader), FDA-approved drug library screen
[7] = test system: B. burgdorferi (growing, strain B31); assay: MIC determination, standard microdilution method; type: cell-based, Borrelia burgdorferi; conditions: Borreliella burgdorferi; growing B. burgdorferi; read-out: MIC
[8] = test system: stationary phase B. burgdorferi persisters (strain B31); assay: NCI compound library screen, SYBR Green I/PI assay (plate reader)
[9] = 10 μg/mL drugs or combinations, 7 days
[10] = 10 μg/mL, 7 days treatment, then subculture
[11] = 50 μM, 7 days, stationary phase

## C[C@H]1c2cccc(O)c2C(=O)C2=C(O)[C@]3(O)C(=O)C(C(N)=O)=C(O)[C@@H](N(C)C)[C@@H]3[C@@H](O)[C@@H]21 [Doxycycline]
[1]; [9]
  Live cell %, ten day old stationary phase culture (in brackets): 72%
[1]; Borreliella burgdorferi, 168 h, read-out: Live Cell % (residual viable B. burgdorferi), ten-day-old stationary phase culture enriched with micro-colonies, 10 μg/mL each drug, 7 days
  viability at 10 µg/mL: 72%
[2]; [9]
  Live cell %, round body form: 49%
[2]; Borreliella burgdorferi, 168 h, read-out: Residual viable cells (SYBR Green I/PI assay)
  viability at 50 µM: 42%
[2]; round body form, 50 μM, 7 days
  Ratios of green/red fluorescence, Primary screening: 6.34
  Ratios of green/red fluorescence, Rescreening (first column): 6.39
  Ratios of green/red fluorescence, Rescreening (second column): 6.67
[3]; 3-day log phase culture
  persister frequency (percentage of live cells after antibiotic treatment, in brackets): (6.4%)
[3]; 7-day stationary phase culture
  persister frequency (in brackets): (24%)
[3]; 10-day stationary phase culture
  persister frequency (in brackets): (~25%)
[3]; 10-day-old stationary phase culture, 10 μg/mL, 7 days, FIG. 17A
  planktonic form cells remaining green (live): about 71%
[4]; read-out: Activity against persisters (residual viable cell percentage)
  viability at 50 µM: 77%
[4]; read-out: Residual viable cells (%) 20 μM (epifluorescence microscope counting)
  viability at 20 µM: 77%
[4]; read-out: Residual viable cells (%) 50 μM (epifluorescence microscope counting)
  viability at 50 µM: 77%
[4]; read-out: Residual viable cells (epifluorescence microscope counting)
  viability at 50 µM: 77%
[5]; [10]
  Spirochetes number After 10 day subculture: 1 × 10^6
  Spirochetes number After 20 day subculture: about 5×10^6
[5]; 10 μg/mL, 7 days treatment, then subculture, listed as Dox
  Spirochetes number After 20 day subculture: 5 × 10^6
[5]; Borreliella burgdorferi, 168 h, read-out: Residual viable cells
  viability at 10 µg/mL: 44%
[6]; [11]
  Ratio of Green/Red fluorescence, Primary screening: 7.62
  Ratio of Green/Red fluorescence, Rescreening (first column): 7.35
  Ratio of Green/Red fluorescence, Rescreening (second column): 7.58
[6]; Borreliella burgdorferi, 168 h, read-out: Residual viable cells (regression equation, SYBR Green I/PI assay)
  viability at 50 µM: 67%
[7]
  MIC: ≤ 0.25 µg/mL
[8]; 50 μM, seven day old stationary phase culture, 7 days
  Residual viable cells (SYBR Green I/PI assay): 68%
[8]; Borreliella burgdorferi, 168 h, read-out: Residual viable cells (%) 20 μM (SYBR Green I/PI assay), 20 μM, seven day old stationary phase, 7 days
  viability at 20 µM: 76%
[8]; Borreliella burgdorferi, 168 h, read-out: Residual viable cells (SYBR Green I/PI assay), 50 μM, seven day old stationary phase culture, 7 days
  viability at 50 µM: 75%
